Reference: PubChem BioAssay (NCI)
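Exposure lasted 48 hours, with cells grown in 96-well plates and compounds tested at five concentrations. GI50 = concentration required for 50% inhibition of growth. TGI: concentration producing complete growth inhibition.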

How the values were obtained:
Assay in all cases: NCI-60 cell line screen, 48 h
[1] = test system: 786-0 renal
[2] = test system: A498 renal
[3] = test system: A549 NSCLC
[4] = test system: ACHN renal
[5] = test system: BT-549 breast
[6] = test system: CAKI-1 renal
[7] = test system: CCRF-CEM leukemia
[8] = test system: COLO 205 colon
[9] = test system: DU-145 prostate
[10] = test system: EKVX NSCLC
[11] = test system: HCC-2998 colon
[12] = test system: HCT-116 colon
[13] = test system: HCT-15 colon
[14] = test system: HL-60(TB) leukemia
[15] = test system: HOP-62 NSCLC
[16] = test system: HOP-92 NSCLC
[17] = test system: HS 578T breast
[18] = test system: HT29 colon
[19] = test system: IGROV1 ovarian
[20] = test system: K-562 leukemia
[21] = test system: KM12 colon
[22] = test system: LOX IMVI melanoma
[23] = test system: M14 melanoma
[24] = test system: MALME-3M melanoma
[25] = test system: MCF7 breast
[26] = test system: MDA-MB-231 breast
[27] = test system: MDA-MB-435
[28] = test system: NCI-H226 lung
[29] = test system: NCI-H23 lung
[30] = test system: NCI-H460 lung
[31] = test system: NCI-H522 lung
[32] = test system: NCI/ADR-RES ovarian
[33] = test system: OVCAR-3 ovarian
[34] = test system: OVCAR-5 ovarian
[35] = test system: OVCAR-8 ovarian
[36] = test system: PC-3 prostate
[37] = test system: RPMI-8226 leukemia
[38] = test system: RXF 393 renal
[39] = test system: SF-268 CNS
[40] = test system: SF-295 CNS
[41] = test system: SF-539 CNS
[42] = test system: SK-MEL-2 melanoma
[43] = test system: SK-MEL-28 melanoma
[44] = test system: SK-MEL-5 melanoma
[45] = test system: SK-OV-3 ovarian
[46] = test system: SN12C renal
[47] = test system: SNB-19 CNS
[48] = test system: SW-620 colon
[49] = test system: T-47D breast
[50] = test system: TK-10 renal
[51] = test system: U251 CNS
[52] = test system: UACC-257 melanoma
[53] = test system: UACC-62 melanoma
[54] = test system: UO-31 renal

Compound: Cc1cc(C2CC(O)C(CO)O2)c(Cl)cc1Cl (stereo not drawn)
- GI50 [1]: > 100 µM
- TGI [1]: > 100 µM
- GI50 [2]: 58.2 µM
- TGI [2]: > 100 µM
- GI50 [3]: > 100 µM
- TGI [3]: > 100 µM
- GI50 [4]: > 100 µM
- TGI [4]: > 100 µM
- GI50 [5]: > 100 µM
- TGI [5]: > 100 µM
- GI50 [6]: > 100 µM
- TGI [6]: > 100 µM
- GI50 [7]: > 100 µM
- TGI [7]: > 100 µM
- GI50 [8]: > 100 µM
- TGI [8]: > 100 µM
- GI50 [9]: > 100 µM
- TGI [9]: > 100 µM
- GI50 [10]: 98.4 µM
- TGI [10]: > 100 µM
- GI50 [11]: > 100 µM
- TGI [11]: > 100 µM
- GI50 [12]: > 100 µM
- TGI [12]: > 100 µM
- GI50 [13]: > 100 µM
- TGI [13]: > 100 µM
- GI50 [14]: > 100 µM
- TGI [14]: > 100 µM
- GI50 [15]: > 100 µM
- TGI [15]: > 100 µM
- GI50 [16]: 89.4 µM
- TGI [16]: > 100 µM
- GI50 [17]: 84.8 µM
- TGI [17]: > 100 µM
- GI50 [18]: > 100 µM
- TGI [18]: > 100 µM
- GI50 [19]: 46.3 µM
- TGI [19]: > 100 µM
- GI50 [20]: > 100 µM
- TGI [20]: > 100 µM
- GI50 [21]: > 100 µM
- TGI [21]: > 100 µM
- GI50 [22]: 84.3 µM
- TGI [22]: > 100 µM
- GI50 [23]: > 100 µM
- TGI [23]: > 100 µM
- GI50 [24]: > 100 µM
- TGI [24]: > 100 µM
- GI50 [25]: > 100 µM
- TGI [25]: > 100 µM
- GI50 [26]: 69.5 µM
- TGI [26]: > 100 µM
- GI50 [27]: > 100 µM
- TGI [27]: > 100 µM
- GI50 [28]: 56.4 µM
- TGI [28]: > 100 µM
- GI50 [29]: > 100 µM
- TGI [29]: > 100 µM
- GI50 [30]: > 100 µM
- TGI [30]: > 100 µM
- GI50 [31]: > 100 µM
- TGI [31]: > 100 µM
- GI50 [32]: > 100 µM
- TGI [32]: > 100 µM
- GI50 [33]: > 100 µM
- TGI [33]: > 100 µM
- GI50 [34]: > 100 µM
- TGI [34]: > 100 µM
- GI50 [35]: > 100 µM
- TGI [35]: > 100 µM
- GI50 [36]: 77.8 µM
- TGI [36]: > 100 µM
- GI50 [37]: 70.4 µM
- TGI [37]: > 100 µM
- GI50 [38]: > 100 µM
- TGI [38]: > 100 µM
- GI50 [39]: > 100 µM
- TGI [39]: > 100 µM
- GI50 [40]: > 100 µM
- TGI [40]: > 100 µM
- GI50 [41]: > 100 µM
- TGI [41]: > 100 µM
- GI50 [42]: > 100 µM
- TGI [42]: > 100 µM
- GI50 [43]: > 100 µM
- TGI [43]: > 100 µM
- GI50 [44]: > 100 µM
- TGI [44]: > 100 µM
- GI50 [45]: > 100 µM
- TGI [45]: > 100 µM
- GI50 [46]: > 100 µM
- TGI [46]: > 100 µM
- GI50 [47]: > 100 µM
- TGI [47]: > 100 µM
- GI50 [48]: > 100 µM
- TGI [48]: > 100 µM
- GI50 [49]: > 100 µM
- TGI [49]: > 100 µM
- GI50 [50]: > 100 µM
- TGI [50]: > 100 µM
- GI50 [51]: > 100 µM
- TGI [51]: > 100 µM
- GI50 [52]: > 100 µM
- TGI [52]: > 100 µM
- GI50 [53]: 39.9 µM
- TGI [53]: > 100 µM
- GI50 [54]: > 100 µM
- TGI [54]: > 100 µM
